In test [1] the target is Fibroblast growth factor receptor 1 (Homo sapiens) (UniProt P11362). In words: FGFR1 Invitrogen kinase activity assay. To be noted: Compound concentration 1.0 uM.
For test [2], the target named is Sodium-dependent dopamine transporter (Homo sapiens) (UniProt Q01959). To be noted: Compound concentration 10.0 uM.
For test [3], the target named is T1, Serine/threonine-protein kinase 3 (Homo sapiens) (UniProt Q13188).
T1 sequence (whole entry): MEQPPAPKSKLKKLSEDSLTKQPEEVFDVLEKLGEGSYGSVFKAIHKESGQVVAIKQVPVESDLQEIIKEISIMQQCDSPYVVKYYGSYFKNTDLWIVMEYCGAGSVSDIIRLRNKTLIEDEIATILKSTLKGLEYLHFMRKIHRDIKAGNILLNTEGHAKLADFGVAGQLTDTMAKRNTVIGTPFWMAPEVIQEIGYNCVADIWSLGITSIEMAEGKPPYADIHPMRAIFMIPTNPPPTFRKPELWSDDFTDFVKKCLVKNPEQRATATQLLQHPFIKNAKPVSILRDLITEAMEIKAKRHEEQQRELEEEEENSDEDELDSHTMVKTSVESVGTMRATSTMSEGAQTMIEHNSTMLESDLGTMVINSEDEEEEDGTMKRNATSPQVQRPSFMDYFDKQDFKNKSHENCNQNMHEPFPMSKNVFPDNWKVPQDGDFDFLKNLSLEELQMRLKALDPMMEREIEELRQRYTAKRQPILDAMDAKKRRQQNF
As to the kind of experiment: MST2 Invitrogen kinase activity assay. To be noted: Compound concentration 1.0 uM.

Test [4] has as its target Mitogen-activated protein kinase 14 (Homo sapiens) (UniProt Q16539). In words: SAPK2A/p38 Invitrogen kinase activity assay. To be noted: Compound concentration 1.0 uM.
Test [5] addresses High affinity nerve growth factor receptor (Homo sapiens) (UniProt P04629). The note with it: Compound concentration 1.0 uM.
Test [6] concerns the target T2, Serine/threonine-protein kinase TAO3 (Homo sapiens) (UniProt Q9H2K8).
T2 sequence (whole entry): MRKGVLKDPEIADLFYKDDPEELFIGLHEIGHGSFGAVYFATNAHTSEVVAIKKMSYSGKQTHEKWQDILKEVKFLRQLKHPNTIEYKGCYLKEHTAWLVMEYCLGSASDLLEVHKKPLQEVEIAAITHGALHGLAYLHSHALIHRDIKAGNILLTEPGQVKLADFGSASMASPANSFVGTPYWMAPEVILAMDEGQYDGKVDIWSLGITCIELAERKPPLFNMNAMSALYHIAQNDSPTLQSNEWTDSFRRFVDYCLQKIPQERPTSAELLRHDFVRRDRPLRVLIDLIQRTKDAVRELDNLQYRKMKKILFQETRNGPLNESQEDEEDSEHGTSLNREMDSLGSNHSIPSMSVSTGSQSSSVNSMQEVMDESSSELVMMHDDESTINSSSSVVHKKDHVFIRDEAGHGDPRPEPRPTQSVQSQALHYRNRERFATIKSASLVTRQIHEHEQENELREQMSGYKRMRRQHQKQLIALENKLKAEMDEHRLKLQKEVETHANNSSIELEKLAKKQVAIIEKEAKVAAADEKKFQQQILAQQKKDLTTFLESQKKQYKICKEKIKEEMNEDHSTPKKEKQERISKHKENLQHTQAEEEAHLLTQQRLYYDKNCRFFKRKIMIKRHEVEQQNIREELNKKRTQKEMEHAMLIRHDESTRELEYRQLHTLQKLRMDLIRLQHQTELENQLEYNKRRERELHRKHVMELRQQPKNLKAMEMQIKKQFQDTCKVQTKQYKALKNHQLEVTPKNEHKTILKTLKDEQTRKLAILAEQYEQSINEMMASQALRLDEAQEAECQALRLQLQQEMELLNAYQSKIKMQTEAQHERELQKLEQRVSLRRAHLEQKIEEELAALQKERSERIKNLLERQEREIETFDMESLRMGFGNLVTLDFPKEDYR
As to the kind of experiment: TAOK3 Invitrogen kinase activity assay. To be noted: Compound concentration 1.0 uM.

In test [7] the target is Vascular endothelial growth factor receptor 1 (Homo sapiens, UniProt P17948). As to the kind of experiment: Cerep profiling assay (FLT1). The arrangement: compound concentration 10 uM.
Sequence of Vascular endothelial growth factor receptor 1 (P17948 whole entry): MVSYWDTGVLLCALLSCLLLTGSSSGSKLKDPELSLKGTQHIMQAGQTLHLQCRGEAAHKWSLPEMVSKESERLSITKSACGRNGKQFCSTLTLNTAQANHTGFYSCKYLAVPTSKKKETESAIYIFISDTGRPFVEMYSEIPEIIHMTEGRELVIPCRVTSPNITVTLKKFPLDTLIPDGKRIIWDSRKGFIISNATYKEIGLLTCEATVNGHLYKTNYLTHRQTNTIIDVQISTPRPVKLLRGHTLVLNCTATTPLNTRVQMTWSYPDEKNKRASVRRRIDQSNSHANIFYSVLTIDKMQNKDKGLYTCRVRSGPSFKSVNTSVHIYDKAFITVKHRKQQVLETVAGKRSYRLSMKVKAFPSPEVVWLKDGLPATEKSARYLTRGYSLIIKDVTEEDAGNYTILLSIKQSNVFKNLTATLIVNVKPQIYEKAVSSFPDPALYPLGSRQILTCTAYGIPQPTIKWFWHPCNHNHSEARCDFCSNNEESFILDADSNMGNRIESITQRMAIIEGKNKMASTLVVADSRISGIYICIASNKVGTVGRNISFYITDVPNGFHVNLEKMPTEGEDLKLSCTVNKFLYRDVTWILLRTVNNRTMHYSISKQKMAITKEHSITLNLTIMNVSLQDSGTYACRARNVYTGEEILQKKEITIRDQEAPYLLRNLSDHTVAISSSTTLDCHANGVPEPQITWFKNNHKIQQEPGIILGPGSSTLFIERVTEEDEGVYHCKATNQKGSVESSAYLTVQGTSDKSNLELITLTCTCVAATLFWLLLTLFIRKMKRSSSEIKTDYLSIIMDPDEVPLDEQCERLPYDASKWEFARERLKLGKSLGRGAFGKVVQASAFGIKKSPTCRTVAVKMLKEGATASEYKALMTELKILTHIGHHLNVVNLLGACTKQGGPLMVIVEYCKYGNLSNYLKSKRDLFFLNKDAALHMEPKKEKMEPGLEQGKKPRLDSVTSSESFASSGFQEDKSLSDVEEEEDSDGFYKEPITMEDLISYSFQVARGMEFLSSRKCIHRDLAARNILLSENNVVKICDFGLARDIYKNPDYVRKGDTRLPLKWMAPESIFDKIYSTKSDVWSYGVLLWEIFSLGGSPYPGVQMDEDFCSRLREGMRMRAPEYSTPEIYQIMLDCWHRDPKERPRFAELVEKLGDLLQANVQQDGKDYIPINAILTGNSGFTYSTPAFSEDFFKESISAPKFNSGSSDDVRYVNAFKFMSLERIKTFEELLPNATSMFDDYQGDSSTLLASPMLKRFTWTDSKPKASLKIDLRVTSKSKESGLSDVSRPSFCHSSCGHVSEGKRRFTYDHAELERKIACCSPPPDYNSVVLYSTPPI

The structures appear in SMILES notation.

In general, inhibition refers to the relative decrease from the control value, in per cent. In general, IC50 refers to the concentration needed to halve the response being measured. Low values mean greater potency in that assay, high ones weaker potency in that assay.

Sequence of Sodium-dependent dopamine transporter (Homo sapiens) (Q01959 whole entry): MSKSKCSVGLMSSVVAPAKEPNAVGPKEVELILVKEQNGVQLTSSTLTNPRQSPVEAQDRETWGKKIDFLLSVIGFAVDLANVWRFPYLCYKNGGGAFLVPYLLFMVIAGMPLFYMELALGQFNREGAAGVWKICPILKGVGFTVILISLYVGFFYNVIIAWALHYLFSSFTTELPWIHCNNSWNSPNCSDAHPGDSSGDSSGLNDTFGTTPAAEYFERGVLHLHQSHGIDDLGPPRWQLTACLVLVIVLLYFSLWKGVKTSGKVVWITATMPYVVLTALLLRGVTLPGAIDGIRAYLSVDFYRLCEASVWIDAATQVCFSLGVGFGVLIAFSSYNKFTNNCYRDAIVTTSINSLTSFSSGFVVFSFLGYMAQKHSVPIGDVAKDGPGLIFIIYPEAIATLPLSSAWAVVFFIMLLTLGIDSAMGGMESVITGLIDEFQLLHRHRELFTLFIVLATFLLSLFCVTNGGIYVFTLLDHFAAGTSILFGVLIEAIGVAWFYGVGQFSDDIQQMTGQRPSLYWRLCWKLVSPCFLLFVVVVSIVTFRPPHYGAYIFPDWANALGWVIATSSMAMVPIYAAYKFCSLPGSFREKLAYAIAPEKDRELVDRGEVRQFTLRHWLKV
Sequence of Mitogen-activated protein kinase 14 (Homo sapiens) (Q16539 whole entry): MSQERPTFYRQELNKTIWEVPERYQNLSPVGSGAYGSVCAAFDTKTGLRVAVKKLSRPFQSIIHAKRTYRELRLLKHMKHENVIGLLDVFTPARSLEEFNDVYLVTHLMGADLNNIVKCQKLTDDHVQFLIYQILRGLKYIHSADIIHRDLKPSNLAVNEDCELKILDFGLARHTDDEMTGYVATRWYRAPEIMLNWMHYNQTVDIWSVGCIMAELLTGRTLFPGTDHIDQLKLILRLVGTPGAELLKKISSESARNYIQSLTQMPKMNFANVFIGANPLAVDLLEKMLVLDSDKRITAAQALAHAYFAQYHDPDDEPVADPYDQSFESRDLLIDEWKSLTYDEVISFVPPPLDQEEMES
Sequence of High affinity nerve growth factor receptor (Homo sapiens) (P04629 33-796 limits assumed): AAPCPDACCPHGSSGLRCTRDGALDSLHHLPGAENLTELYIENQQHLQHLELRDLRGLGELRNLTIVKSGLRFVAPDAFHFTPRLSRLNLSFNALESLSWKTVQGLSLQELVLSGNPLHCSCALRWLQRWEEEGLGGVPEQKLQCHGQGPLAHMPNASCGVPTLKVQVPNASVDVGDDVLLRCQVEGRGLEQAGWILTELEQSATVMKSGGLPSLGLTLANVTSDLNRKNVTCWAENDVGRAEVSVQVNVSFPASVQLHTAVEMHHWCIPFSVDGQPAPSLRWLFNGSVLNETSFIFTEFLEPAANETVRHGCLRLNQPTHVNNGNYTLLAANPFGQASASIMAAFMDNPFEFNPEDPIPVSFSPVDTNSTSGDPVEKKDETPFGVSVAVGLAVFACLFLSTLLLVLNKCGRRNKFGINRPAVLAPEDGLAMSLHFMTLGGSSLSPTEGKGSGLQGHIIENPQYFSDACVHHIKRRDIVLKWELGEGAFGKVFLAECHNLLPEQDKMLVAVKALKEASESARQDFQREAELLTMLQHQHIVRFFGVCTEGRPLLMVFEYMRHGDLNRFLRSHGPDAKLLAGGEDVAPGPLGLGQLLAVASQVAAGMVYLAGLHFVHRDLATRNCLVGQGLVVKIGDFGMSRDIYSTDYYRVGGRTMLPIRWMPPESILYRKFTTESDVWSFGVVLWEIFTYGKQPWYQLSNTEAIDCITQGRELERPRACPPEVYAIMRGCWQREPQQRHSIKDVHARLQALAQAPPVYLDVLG
Sequence of Fibroblast growth factor receptor 1 (Homo sapiens) (P11362 22-822 limits assumed): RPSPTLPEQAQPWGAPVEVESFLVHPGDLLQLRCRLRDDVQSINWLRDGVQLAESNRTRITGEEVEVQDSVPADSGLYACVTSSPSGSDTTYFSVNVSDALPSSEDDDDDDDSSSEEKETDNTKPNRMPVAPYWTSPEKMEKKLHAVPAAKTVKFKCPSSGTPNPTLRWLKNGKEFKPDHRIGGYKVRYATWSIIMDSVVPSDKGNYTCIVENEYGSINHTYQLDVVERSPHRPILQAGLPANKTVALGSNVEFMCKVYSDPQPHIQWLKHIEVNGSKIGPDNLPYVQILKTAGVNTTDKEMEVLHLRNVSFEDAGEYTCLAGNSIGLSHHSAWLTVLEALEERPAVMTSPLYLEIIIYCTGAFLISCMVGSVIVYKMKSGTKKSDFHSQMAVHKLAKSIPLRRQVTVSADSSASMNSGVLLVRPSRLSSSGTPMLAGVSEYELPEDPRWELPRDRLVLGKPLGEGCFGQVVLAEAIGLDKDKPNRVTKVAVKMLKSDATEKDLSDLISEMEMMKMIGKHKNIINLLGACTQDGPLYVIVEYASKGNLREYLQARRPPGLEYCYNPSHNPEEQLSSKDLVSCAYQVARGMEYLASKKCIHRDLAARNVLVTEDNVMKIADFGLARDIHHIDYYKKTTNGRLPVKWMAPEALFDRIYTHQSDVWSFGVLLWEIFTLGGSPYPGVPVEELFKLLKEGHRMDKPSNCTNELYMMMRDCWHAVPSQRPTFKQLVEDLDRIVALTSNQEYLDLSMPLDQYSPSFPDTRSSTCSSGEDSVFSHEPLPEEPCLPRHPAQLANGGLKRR

`CNC(=O)c1ccc(Nc2ncc(C(F)(F)F)c(NCc3nccnc3N(C)S(C)(=O)=O)n2)cc1` [DEFACTINIB]: the inhibition in test [1] is 64%; in test [2], -6.06%; in test [3], 60%; in test [4], 1%; in test [5], 97%; in test [6] it was 66%. In test [7], the IC50 is on record as 2.5 µM (not active).
